Results on 8 molecules are retold here after PMC9954146, “Anti-Leukaemic Activity of Rilpivirine Is Mediated by Aurora A Kinase Inhibition” (Cancers, 2023).

By GI50 is commonly meant the concentration at which growth is held to half of that of the control.

Assay [1] relates to K-562 cells. Description: Cell cycle analysis (PI, flow cytometry). It counts as cell-based, human. As for the experimental part: (§1) To determine the effect of rilpivirine on cell-cycle distribution a flow cytometry-based analysis was performed after staining the untreated and treated cells with propidium iodide (PI) solution [22]. Briefly, 6 × 10^4 cells/well were seeded in 3 mL of medium per well in 6-well plates. After overnight incubation at 37 °C in 5% CO2, the cells were incubated with the test compounds for specified time points. The medium-containing cells were then taken out from the wells and transferred to FACS tubes. Cells were then pelleted by centrifugation at 300 g for 5 min. Afterward, cells were fixed by using 70% (v/v) ice-cold ethanol for 15 min and then again pelleted by centrifugation (300 g for 5 min). Finally, the cells were incubated with 200 µL of PI staining solution (50 μg/mL PI, 0.1% sodium citrate, 0.1 mg/mL RNase A, and 0.1% Triton X-100) for 1.5 h at room temperature in the dark. After the incubation period, the cells were analysed using a CytoFLEX flow cytometer (Beckman Coulter Inc., Brea, CA, USA). CytExpert software version 2.1 was used for data analysis and graph preparation.

The subject of assay [2] is K-562 cells. Description: Resazurin cell viability assay. The class given is cell-based, human. The settings on record: 72 h. As for the experimental part:
Cell viability was determined by a resazurin-based assay as described previously. Briefly, 5 × 10^3 cells/well were seeded into 96-well plates (Corning Inc., Corning, NY, USA) in 180 µL of RPMI 1640 medium and incubated overnight at 37 °C with 5% CO2. Next day, cells were treated with rilpivirine after serially diluted (1:2 dilution for final concentrations ranging from 0.625 µM to 40 µM) or DMSO (0.1%) for specified time periods (24, 48, or 72 h). At the end of the treatment period, 20 µL of resazurin (0.1 mg/mL in PBS) was added per well and incubated for further 4 h. Fluorescence intensities were recorded at 570 nm (excitation)/585 nm (emission) using an EnVision® multilabel plate reader (PerkinElmer, MA, USA). Drug concentrations required for cell viability reduction by 50% (GI50) compared with untreated (DMSO vehicle-treated only) control were determined by a non-linear regression model using GraphPad Prism software version 7.02 (La Jolla, CA, USA).

The test system of the next assay is KG1 cells. Details: method as in PMID 18056483. The settings on record: cited from earlier work.
In assay [3] the test system is SKOV-3 ovarian-cancer cells. Details: method as in PMID 28390117. The settings on record: FACS analysis; cited from earlier work. (A flow cytometer gives signals particle by particle.)
The next assay concerns HL-60 cells. The experiment in a line: Resazurin cell viability assay. The class given is cell-based. The settings on record: Homo sapiens, HL-60, 72 h; read-out: 72-h GI50. As for the experimental part: Cell viability was determined by a resazurin-based assay as described previously. […] At the end of the treatment period, 20 µL of resazurin (0.1 mg/mL in PBS) was added per well and incubated for further 4 h.

Another assay relates to Aurora A. Also on record: method as in PMID 36297298. The settings on record: cited from earlier work.
The subject of the next assay is U-937 cells. Description: Cell cycle analysis (PI, flow cytometry). The class given is cell-based, human. The settings on record: 10 µM, 24 h. As for the experimental part: as §1
For another assay, the system named is NB4 cells. The experiment in a line: Cell cycle analysis (PI, flow cytometry). The settings on record: 10 µM, 24 h. It counts as cell-based, human. As for the experimental part: as §1

Turning to `N[C@@H]1CCCN(c2c(/C=C3\SC(=O)NC3=O)cccc2-c2ccccc2)C1` [AZD1208], the cell-cycle arrest entry with K-562 cells [1] (60 μM, 48 h) is on record as “induced G1 arrest”. Further, in the assay on K-562 cells [2], the GI50 is approximately 38 µM.

With `CC(C)(C)n1nc(-c2ccc(Cl)cc2)c2c(N)ncnc21` [PP2], in the assay on KG1 cells, the cell-cycle arrest entry is on record as “induced G1 cell-cycle arrest”.

Regarding `Nc1nc(NC2CC2)c2ncn([C@H]3C=C[C@@H](CO)C3)c2n1` [abacavir], the cell-cycle phase arrest result in assay [3] is reported as “predominance of a G0/G1 phase arrest”.

For the molecule `Nc1ccn([C@@H]2O[C@H](CO)[C@@H](O)[C@@H]2O)c(=O)n1` [cytarabine], the GI50 with HL-60 cells turned out to be 0.07 µM.

Take `CC(C)CN(C[C@@H](O)[C@H](Cc1ccccc1)NC(=O)O[C@H]1CO[C@H]2OCC[C@H]21)S(=O)(=O)c1ccc(N)cc1` [darunavir]: in assay [3], the cell-cycle phase arrest entry is given as “predominance of a G0/G1 phase arrest”.

As to `O=C1Nc2ccc(Cl)cc2[C@@](C#CC2CC2)(C(F)(F)F)O1` [efavirenz], in assay [3], the cell-cycle phase arrest result is “predominance of a G0/G1 phase arrest”.

With `Cc1cc(C#N)cc(C)c1Oc1nc(Nc2ccc(C#N)cc2)nc(N)c1Br` [etravirine], the “Aurora A kinase inhibition” value with Aurora A is reported as “inability to inhibit Aurora A kinase”. Moreover, the G2/M phase arrest entry in the assay on U-937 cells is “failed to induce a G2/M phase arrest”; in the assay with K-562 cells [1] (10 µM, 24 h), “failed to induce a G2/M phase arrest”; in the assay with NB4 cells, “failed to induce a G2/M phase arrest”. Further, in assay [3], the cell-cycle phase arrest entry was “predominance of a G0/G1 phase arrest”. For the same molecule, in assay [3], the “proportion of cells in the G2/M phase” value is given as “failed to increase the proportion of cells in the G2/M phase”.

Regarding `C[C@H](Cn1cnc2c(N)ncnc21)OCP(=O)(O)O` [tenofovir], in assay [3], the cell-cycle phase arrest result is listed as “predominance of a G0/G1 phase arrest”.
